Measurements as given in PubChem BioAssay AID789 (SRMLSC, 2007).
pIC50: −log10 of the molar value. Active and inactive are the calls of the source. The rule behind the calls is not given here.

Assays:
[1] = tested on: S. cerevisiae apl2Δ mutant growth inhibition; assay: growth inhibition of apl2Δ yeast, dose response, selectivity assay for post-Golgi transport modulator project, S. cerevisiae, secondary screen, background strain comparison (AID 789)
[2] = as above; conditions: for pIC50: S. cerevisiae background (wild-type parent) strain growth inhibition; for growth inhibition: S. cerevisiae apl2Δ mutant growth inhibition, at 25 µM (top of the series)

Structure (SMILES) | IC50 [1] | pIC50 [2] | growth inhibition [2] | pIC50 [1]
Cc1ccc(S(=O)(=O)N(CC(=O)N2CCC(C(N)=O)CC2)c2cccc(C(F)(F)F)c2)cc1 | > 10 µM (inactive) | < 5.00 |  | 
Cc1ccc(-n2cc3c(-c4cccc(Br)c4)nnc(C)c3n2)cc1 | 15.4 µM (inactive) | 4.87 |  | 
Cc1cc(C)nc(NC(=O)CSc2nn(C)c(=S)s2)n1 | > 10 µM (inactive) | < 5.00 |  | 
O=C(Nc1cc(C(F)(F)F)ccc1-n1cncn1)c1ccc(-c2ccccc2)cc1 | > 10 µM (inactive) | < 5.00 |  | 
O=[N+]([O-])c1cc(Cl)cc(/C=N\Nc2ccccn2)c1O | > 10 µM (inactive) |  |  | 
Cn1c(=O)c2nc(NCc3ccccc3)cnc2n(C)c1=O | > 10 µM (inactive) | < 5.00 |  | 
Nc1cc(N)c(OCC(F)(F)F)cc1OCC(F)(F)F | > 10 µM (inactive) | < 5.00 |  | 
CCN(CC)c1nc2cc(OC)ccc2cc1C#N | > 10 µM (inactive) | < 5.00 |  | 
CCn1c(SCC(=O)N2CCCc3ccccc32)nnc1-c1ccco1 | > 10 µM (inactive) | < 5.00 |  | 
O=C(OCn1ncc(Br)c(Br)c1=O)c1ccc(F)cc1 | > 10 µM (inactive) | 5.27 |  | 
O=C(c1ccco1)N1CCN(c2ncnc3c2[nH]c2ccccc23)CC1 | > 10 µM (inactive) | < 5.00 |  | 
COc1ccc(N2CCN(c3oc(-c4ccco4)nc3C#N)CC2)cc1 | > 10 µM (inactive) | < 5.00 |  | 
Cc1cccc(CS(=O)(=O)Cc2ccc(C(=O)NCCCN3CCCC3)o2)c1 | > 10 µM (inactive) | < 5.00 |  | 
Cc1ccc(C(=O)NCc2occc2C(=O)O)o1 | > 10 µM (inactive) | < 5.00 |  | 
O=C(COc1ccc(Cl)cc1)Nc1ccc(N2CCN(C(=O)c3ccco3)CC2)cc1 | > 10 µM (inactive) | < 5.00 |  | 
Cc1cc(=O)oc2c(CN3CCCCC3)c(O)c(Cl)cc12 | > 10 µM (inactive) | < 5.00 |  | 
Cc1ccc2nc(C)cc(OCC(=O)O)c2c1 | > 10 µM (inactive) | < 5.00 |  | 
CC1CC(C)CN(CCOc2ccc(Cl)cc2Cl)C1 (stereo not given) | > 10 µM (inactive) | < 5.00 |  | 
O=C(CCC(=O)OCC(=O)c1ccc(F)cc1)NC1CCCCC1 | > 10 µM (inactive) | < 5.00 |  | 
O=C(Nc1nc(-c2ccccn2)cs1)c1ncc(Cl)c(Cl)c1Cl | 19.3 µM (inactive) | 4.88 |  | 
C=CCc1ccc(OCCCCN2CC(C)OC(C)C2)c(OC)c1 (stereo not given) |  | < 5.00 | 34.1% (inactive) | 
COc1ccc(C2C3=C(CCCC3=O)Nc3nc(-c4cc(OC)c(OC)c(OC)c4)nn32)cc1OC (stereo not given) | > 10 µM (inactive) | < 5.00 |  | 
CCC(=O)N(CCO)Cc1cc2ccc(C)c(C)c2[nH]c1=O | > 10 µM (inactive) | < 5.00 |  | 

Structure (SMILES) | IC50 [1] | pIC50 [2] | growth inhibition [2] | pIC50 [1]
CCn1c(=O)[nH]c2cc(C(=O)N3CCN(c4ccccc4)CC3)ccc2c1=O | > 10 µM (inactive) | < 5.00 |  | 
Cc1nnc(-c2cccc(Br)c2)c2cn(-c3ccccc3Cl)nc12 | > 10 µM (inactive) | 4.59 |  | 
Cc1ccc(C(C)C)c(OCCCN2CC(C)OC(C)C2)c1 (stereo not given) | > 10 µM (inactive) | < 5.00 |  | 
COc1cccc(NC(=O)c2ccc(CN3CCN(c4ccccc4)CC3)cc2)c1 | > 10 µM (inactive) | < 5.00 |  | 
O=C1CC(N2CCN(c3ccc(Cl)c(Cl)c3)CC2)C(=O)N1 (stereo not given) | > 10 µM (inactive) | < 5.00 |  | 
COc1cccc(OCCCCN2CC(C)OC(C)C2)c1 (stereo not given) | > 10 µM (inactive) | < 5.00 |  | 
N=c1nc(N)nc2n1NC(c1ccc(F)cc1)=CS2 | > 10 µM (inactive) | < 5.00 |  | 
CCC(C)(C)n1nnnc1C(c1cc2cc3c(cc2[nH]c1=O)OCO3)N1CCN(C)CC1 (stereo not given) | > 10 µM (inactive) | < 5.00 |  | 
CC1CN(CC(O)COc2ccc(C(C)C)cc2)CC(C)O1 (stereo not given) | > 10 µM (inactive) | < 5.00 |  | 
O=[N+]([O-])c1ccc(N2CCN(S(=O)(=O)c3ccc(Cl)cc3)CC2)cc1NCc1cccnc1 | > 10 µM (inactive) | < 5.00 |  | 
O=C(Nc1cccc(Cl)c1)N1CCN(C/C=C/c2ccccc2)CC1 | > 10 µM (inactive) | < 5.00 |  | 
Cc1cc(N2C(=O)C3CCCN3C2c2sccc2C)no1 (stereo not given) | > 10 µM (inactive) | < 5.00 |  | 
O=C(NC1CCN(Cc2ccccc2)CC1)C1COc2ccccc2O1 (stereo not given) | > 10 µM (inactive) | < 5.00 |  | 
COc1ccc(C(=O)Nc2ccc(Cl)cc2C(=O)N2CCCC(C)C2)cc1 (stereo not given) |  | < 5.00 |  | 4.65
COCCCNc1ccnc2c(Cl)cccc12 | > 10 µM (inactive) | < 5.00 |  | 
O=S(=O)(c1ccc(Cl)cc1)N1CCN(C2CCN(Cc3ccccc3)CC2)CC1 | > 10 µM (inactive) | < 5.00 |  | 
CCOc1nc(SCCOc2ccccc2)nc(N(C)C)n1 | > 10 µM (inactive) |  |  | 
CCCn1nc([N+](=O)[O-])c(C(C#N)c2nc3ccccc3s2)c(Cl)c1=O (stereo not given) | 13.7 µM (inactive) | 5.67 |  | 
CCOC(=O)c1cc2c(ccn2C)n1CC(=O)N1CCN(c2ccccc2OC)CC1 | > 10 µM (inactive) | < 5.00 |  | 
O=C(Cn1nnc(-c2ccc(S(=O)(=O)N3CCCC3)cc2)n1)NCC1CCCO1 (stereo not given) | > 10 µM (inactive) | < 5.00 |  | 
O=C(NCc1ccc2c(c1)OCO2)c1ccc(CS(=O)(=O)c2cccc(C(F)(F)F)c2)o1 | > 10 µM (inactive) | < 5.00 |  | 
CC1CC(C)CN(CC(C)(C)NS(=O)(=O)c2ccc(Cl)cc2)C1 (stereo not given) | > 10 µM (inactive) | < 5.00 |  | 
CC(=O)NC1C(c2nc3ccccc3s2)=C(c2ccccc2)C(=O)N1c1ccc(C)cc1 (stereo not given) | 2.89 µM (inactive) | 5.72 |  | 

Structure (SMILES) | IC50 [1] | pIC50 [2] | growth inhibition [2] | pIC50 [1]
O=C(OCn1ncc(Cl)c(Cl)c1=O)c1cccc(C(F)(F)F)c1 |  | 5.45 |  | 
CCOC(=O)C1CCN(Cc2cnc(Oc3ccc(Cl)cc3C)s2)CC1 | > 10 µM (inactive) | < 5.00 |  | 
CC(=O)Nc1ccccc1NS(=O)(=O)c1ccc(Cl)cc1 | > 10 µM (inactive) | < 5.00 |  | 
N[C@@H](Cc1c[nH]c2ccccc12)c1nnc(SCc2ccc(Cl)cc2)o1 |  | 4.69 |  | 
COc1ccc(NC(=O)N(C2CCCCC2)C(C)c2cccnc2)c(OC)c1 (stereo not given) |  | 4.78 |  | 4.90
CC1CCC(C(C)C)C(OCC(O)CN2CCN(Cc3ccccc3)CC2)C1 (stereo not given) |  |  |  | 4.71
O=C1c2ccccc2C(=O)c2c1oc(C(F)(F)F)c2C(=O)c1ccccc1 |  | 5.66 |  | 
CCCCC(=O)Nc1nc(C)c(-c2csc(Nc3ccc(Cl)cc3)n2)s1 |  | 5.20 |  | 
N#Cc1ccccc1Cn1cc(C(=O)c2cccs2)c2ccccc21 | > 10 µM (inactive) |  |  | 
N=c1c2c(-c3ccccc3)c(-c3ccccc3)n(Cc3ccco3)c2ncn1Cc1ccccc1 |  |  |  | 4.68
O=C1C=C(c2ccccc2)C(=O)N1Nc1ccccc1 | > 10 µM (inactive) |  |  | 
O=S1(=O)C=C(Sc2nnc(-c3ccccc3)o2)c2ccccc21 | > 10 µM (inactive) |  |  | 
Cc1[nH]nc(N=CC2=C(O)CC(C)(C)CC2=O)c1-c1ccc(Cl)cc1 | > 10 µM (inactive) |  |  | 
O=C(CC(=O)c1cc(Cl)ccc1O)c1ccccc1 |  | 4.90 |  | 
O=C(Nc1nnc(-c2ccc3c(c2)CCCC3)o1)c1ccccc1 | > 10 µM (inactive) |  |  | 
O=S1(=O)C=C(Sc2nc3ccccc3s2)c2ccccc21 | > 10 µM (inactive) |  |  | 
O=C(Nc1nnc(-c2ccccc2)o1)c1ccc(Cl)cc1 |  | 6.19 | 40.8% (inactive) | 
O=C(Nc1ccccc1)C1=C(O)CC(c2ccco2)CC1=Nc1ccccc1 (stereo not given) |  | < 5.00 |  | 
O=C(CN1CCN(c2ccccn2)CC1)Nc1ccc(Oc2ccccc2)cc1 | > 10 µM (inactive) |  |  | 
O=C(NCC(c1cccnc1)N1CCN(c2ccc(F)cc2)CC1)OCc1ccccc1 (stereo not given) |  |  |  | 4.63
O=C(C1CCCN(S(=O)(=O)c2ccc(Cl)cc2)C1)N(Cc1cccs1)C1CC1 (stereo not given) | > 10 µM (inactive) |  |  | 
CCCCC(c1nnnn1Cc1ccco1)N1CCN(c2nc3ccccc3s2)CC1 (stereo not given) |  | 5.41 |  | 
O=C(Nc1nnc(-c2cccs2)o1)c1cccc(C(F)(F)F)c1 | > 10 µM (inactive) |  |  | 

Structure (SMILES) | IC50 [1] | pIC50 [2] | growth inhibition [2] | pIC50 [1]
CCCCCCCCNc1ncnc2ccccc12 |  | 4.83 |  | 
CC(c1nnc(SCn2nnc3ccccc3c2=O)n1-c1ccc(Cl)cc1)N(C)C (stereo not given) | > 10 µM (inactive) |  |  | 
CC(Sc1ccsc1[N+](=O)[O-])C(=O)NCCc1ccc(Cl)cc1 (stereo not given) | > 10 µM (inactive) |  |  | 
CC12CCC(c3c(C(=O)Nc4nccs4)nn(-c4ccccc4)c31)C2(C)C (stereo not given) | > 10 µM (inactive) |  |  | 
CCCCCOc1ccc(CN2CCOCC2)cc1Cl |  | < 5.00 |  | 
Cc1cccc(-c2nnc(-c3cccc(NC(=O)Cc4cccs4)c3)o2)c1 |  | 4.82 |  | 
CC1CCN(S(=O)(=O)c2ccc(NC(=O)CCN3C(=O)c4ccccc4C3=O)cc2)CC1 | > 10 µM (inactive) |  |  | 
CCOc1ccc(NC(=O)N(C2CCCCC2)C(C)c2cccnc2)cc1 (stereo not given) |  |  |  | 4.67
O=S(=O)(Cc1ccccc1Cl)N1CCN(Cc2ccc3c(c2)OCO3)CC1 | > 10 µM (inactive) |  |  | 
O=C(Nc1nnc(C2CC2)o1)c1ccc(S(=O)(=O)N2CCCc3ccccc32)cc1 |  | 5.50 | 30.1% (inactive) | 
CCOC(=O)c1ccc(NC(=O)c2cn(-c3ccccc3)nc2-c2ccncc2)cc1 |  | 4.94 | 18.6% (inactive) | 
O=C(N/N=C/c1ccc([N+](=O)[O-])o1)c1cc(-c2cccc(Br)c2)nc2ccccc12 |  | 5.33 | 42.1% (inactive) | 
COc1ccc(OCCSc2nnc3sc4ccccc4n23)cc1 | > 10 µM (inactive) |  |  | 
CC1CN(CCCCOc2ccc(C(C)C)cc2)CC(C)O1 (stereo not given) |  | < 5.00 |  | 
Cc1ccc(OCC(O)CN2CCN(Cc3ccc4c(c3)OCO4)CC2)c(C)c1 (stereo not given) |  | < 5.00 |  | 
O=C(OCn1ncc(Br)c(Br)c1=O)c1ccccc1Cl | > 10 µM (inactive) |  |  | 
O=C(OCn1ncc(Br)c(Br)c1=O)c1c(F)cccc1F | > 10 µM (inactive) |  |  | 
CC(=O)c1ccc(N2CCN(C(=O)c3ccc(Br)cc3)CC2)c(F)c1 |  | 5.18 |  | 
Cc1ccc(Cl)c(OCCCCN(C)Cc2ccccc2)c1 |  | < 5.00 |  | 
CC(C)c1ccc(C(=O)CSc2n[nH]c(-c3ccncc3)n2)cc1 |  |  |  | 4.77
